# Test results taken from patent publication US20240025862A1, “SUBSTITUTED N-PHENYLURACILS AND SALTS THEREOF, AND USE THEREOF AS HERBICIDAL ACTIVE SUBSTANCES” (Bayer Aktiengesellschaft, priority 2020, published 2024).
# Columns and labels:
# Assay type in all cases: in vivo
# Hordeum murinum (HORMU) = assay: Post-emergence herbicidal action, greenhouse pot test; details: rated visually after about 3 weeks vs untreated controls, 100% = plants have died
# How it was run: (§1)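 Greenhouse-grown weeds in sandy loam were sprayed post-emergence at the one-leaf stage, 2–3 weeks after sowing. Compounds were formulated as WP or EC in water with 0.5% additive at 600 l/ha, at rates of 20 g/ha or less. Visual rating after about 3 weeks used a scale from 0% (like untreated control) to 100% (plants dead).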
# [1] = system: Pharbitis purpurea (PHBPU); assay: as above
# How it was run: as §1
# Lolium rigidum (LOLRI) = assay: as above
# How it was run: as §1
# [2] = system: Polygonum convolvulus (POLCO); assay: as above
# How it was run: as §1
# Viola tricolor (VIOTR) = assay: as above
# How it was run: as §1
# Avena fatua (AVEFA) = assay: as above; details: 20 g/ha, rated visually after about 3 weeks vs untreated controls, 100% = plants have died
# How it was run: as §1
# [3] = system: Amaranthus retroflexus (AMARE); assay: as above; details: rated visually after about 3 weeks vs untreated controls, 100% = plants have died
# How it was run: as §1
# [4] = system: Abutilon theophrasti (ABUTH); assay: as above; details: rated visually after about 3 weeks vs untreated controls, 100% = plants have died
# How it was run: as §1
# Stellaria media (STEME) = assay: as above
# How it was run: as §1
# Veronica persica (VERPE) = assay: as above
# How it was run: as §1
# [5] = system: Echinochloa crus-galli (ECHCG); assay: Post-emergence herbicidal action, greenhouse pot test (also comparative test C)
# How it was run: (§2)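 Visual rating against untreated controls, about 3 weeks after spraying, from 0% (like control) to 100% (plants dead). Weeds were treated at the one-leaf stage, 2–3 weeks after sowing in sandy loam, with aqueous WP/EC spray containing 0.5% additive at 600 l/ha. Doses were ≤20 g/ha, or ≤5 g/ha for comparative test C.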
# [6] = system: Matricaria inodora (MATIN); assay: as above
# How it was run: as §2
# [7] = system: Alopecurus myosuroides (ALOMY); assay: as above; details: rated visually after about 3 weeks vs untreated controls, 100% = plants have died
# How it was run: as §2
# Setaria viridis (SETVI) = assay: as above
# How it was run: as §2
# Zea mays (ZEAMX) = assay: Post-emergence crop plant compatibility, greenhouse pot test; details: vs untreated controls
# How it was run: (§3)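 Seeds are sown in sandy loam and grown under controlled greenhouse conditions. At the one-leaf stage (2–3 weeks), foliage is sprayed with the formulated compound in water containing 0.5% additive at 600 l/ha. About 3 weeks later, injury is rated visually in % against untreated plants.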
# Brassica napus (BRSNW) = assay: as above; details: 1.25 g/ha, vs untreated controls
# How it was run: as §3
# Oryza sativa (ORYSA) = assay: Post-emergence crop plant compatibility, greenhouse pot test (also comparative test C); details: 1.25 g/ha, vs untreated controls
# How it was run: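 Rice and other crops sprayed post-emergence at one-leaf stage (2–3 weeks after sowing) with WP or EC formulations plus 0.5% additive at 600 l/ha water. Visual rating about 3 weeks later versus untreated controls (100% = dead, 0% = like control); suffixes a–c denote different doses.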
smiles,measurement,setting,value
COCCCOC(=O)COc1ccccc1Sc1cc(-n2c(=O)cc(C(F)(F)F)n(C)c2=O)c(F)cc1Cl [I.1-26],Post-emergence action at 5 g/ha against HORMU in %,Hordeum murinum (HORMU); 5 g/ha,80%
same,Post-emergence action at 20 g/ha against HORMU in %,Hordeum murinum (HORMU); 20 g/ha,90%
same,Post-emergence action against PHBPU in %,[1]; dosage 1.25 g/ha,100%
same,Post-emergence action against PHBPU in %,[1]; dosage 5 g/ha,100%
same,Post-emergence action against PHBPU in %,[1]; dosage 20 g/ha,100%
same,Post-emergence action at 5 g/ha against LOLRI in %,"Lolium rigidum (LOLRI); 5 g/ha, rated visually after about 3 weeks vs untreated controls, 100% = plants have died",80%
same,Post-emergence action against LOLRI in %,Lolium rigidum (LOLRI); dosage 20 g/ha,90%
same,Post-emergence action against POLCO in %,[2]; dosage 1.25 g/ha,100%
same,Post-emergence action against POLCO in %,[2]; dosage 5 g/ha,100%
same,Post-emergence action against POLCO in %,[2]; dosage 20 g/ha,100%
same,Post-emergence action against VIOTR,Viola tricolor (VIOTR); 1.25 g/ha,100%
same,Post-emergence action against VIOTR,Viola tricolor (VIOTR); 5 g/ha,100%
same,Post-emergence action against VIOTR,Viola tricolor (VIOTR); 20 g/ha,100%
same,Post-emergence action at 20 g/ha against AVEFA in %,Avena fatua (AVEFA),80%
same,Post-emergence action at 1.25 g/ha against AMARE in %,[3]; 1.25 g/ha,100%
same,Post-emergence action at 5 g/ha against AMARE in %,[3]; 5 g/ha,100%
same,Post-emergence action at 20 g/ha against AMARE in %,[3]; 20 g/ha,100%
same,Post-emergence action at 1.25 g/ha against ABUTH in %,[4]; 1.25 g/ha,100%
same,Post-emergence action at 5 g/ha against ABUTH in %,[4]; 5 g/ha,100%
same,Post-emergence action at 20 g/ha against ABUTH in %,[4]; 20 g/ha,100%
same,Post-emergence action against STEME,Stellaria media (STEME); 1.25 g/ha,100%
same,Post-emergence action against STEME,Stellaria media (STEME); 5 g/ha,100%
same,Post-emergence action against STEME,Stellaria media (STEME); 20 g/ha,100%
same,Post-emergence action against VERPE,Veronica persica (VERPE); 1.25 g/ha,100%
same,Post-emergence action against VERPE,Veronica persica (VERPE); 5 g/ha,100%
same,Post-emergence action against VERPE,Veronica persica (VERPE); 20 g/ha,100%
same,Post-emergence action at 1.25 g/ha against ECHCG in %,"[5]; 1.25 g/ha, rated visually after about 3 weeks vs untreated controls, 100% = plants have died",90%
same,Post-emergence action against ECHCG in %,[5]; dosage 5 g/ha,90%
same,Post-emergence action against ECHCG in %,[5]; dosage 20 g/ha,100%
same,Post-emergence action against MATIN in %,[6]; dosage 1.25 g/ha,80%
same,Post-emergence action against MATIN in %,[6]; dosage 5 g/ha,80%
same,Post-emergence action against MATIN in %,[6]; dosage 20 g/ha,100%
same,Post-emergence action at 5 g/ha against ALOMY in %,[7]; 5 g/ha,80%
same,Post-emergence action at 20 g/ha against ALOMY in %,[7]; 20 g/ha,90%
same,Post-emergence action against SETVI,Setaria viridis (SETVI); 20 g/ha,100%
same,Post-emergence action against SETVI in %,Setaria viridis (SETVI); dosage 1.25 g/ha,100%
same,Post-emergence action against SETVI in %,Setaria viridis (SETVI); dosage 5 g/ha,100%
same,Post-emergence action against ZEAMX (crop plant compatibility),Zea mays (ZEAMX); 1.25 g/ha,10%
same,Post-emergence action against ZEAMX (crop plant compatibility),Zea mays (ZEAMX); 5 g/ha,20%
same,Post-emergence action against BRSNW (crop plant compatibility),Brassica napus (BRSNW),20%
same,Post-emergence action against ORYSA (crop plant compatibility),Oryza sativa (ORYSA),10%
